According to the METLIN SMRT retention time set (Domingo-Almenara et al. 2019):

Assay: gradient 5% acetonitrile 3 min, to 50% in 2 min, to 85% in 15 min, held 3 min, 100 µL/min
Settings: column: Zorbax Extend-C18 2.1 x 50 mm; eluents: water / acetonitrile, 0.1% formic acid
Procedure, shortened: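 In both positive and negative ionization mode, a quadrupole time-of-flight mass spectrometer coupled to HPLC analyzed pure standards run in mixtures of ~100 molecules. The Zorbax Extend-C18 column (2.1 × 50 mm, 1.8 μm) was operated at 100 μL/min with water and acetonitrile, each containing 0.1% formic acid. The dead volume was 40 μL and the dwell volume 900 μL. Retention time came from adduct peaks that were computationally picked and individually inspected by hand.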

For Cc1cc(COC(=O)c2cc3ccccc3o2)no1, the RP-LC retention time was 866 s.

Work on CCN1c2ccc(C)cc2C(=O)NC12CCN(C(=O)c1cccc(OC)c1)CC2 yielded an RP-LC retention time of 805 s.

Work on COCc1nc(-c2ccc(OC3CCN(C(=O)c4n[nH]c5ccccc45)C3)cc2)no1 (stereo not drawn) yielded an RP-LC retention time of 835 s.

Compound CCOc1ccc(CN2C(=O)C3(CCOCC3)CC2c2nnnn2C(C)(C)C)cc1 (stereo not drawn) has an RP-LC retention time of 833 s.

For Cc1cc(C)n2c(Nc3cccc(C(F)(F)F)c3)c(-c3cc(Br)ccc3O)nc2n1, the RP-LC retention time was 1060 s.

Work on CC(C)n1nc(CNC(=O)Cc2ccsc2)c2ccccc21 yielded an RP-LC retention time of 850 s.

Compound O=C(Cc1cccs1)NC1CCN(c2nnc3ccc(Cl)cn23)CC1 has an RP-LC retention time of 596 s.

In the case of COc1cccc(-c2nc(-c3ccc(-n4ccnc4)nc3)no2)c1, the RP-LC retention time is reported as 736 s.

With C[n+]1ccc(Nc2ccc(NC(=O)c3ccc(Nc4cc[n+](C)c5ccc([N+](=O)[O-])cc45)cc3[N+](=O)[O-])cc2)cc1 the RP-LC retention time was 1080 s.

Work on COc1ccc(CNC(=O)c2ccc3c(c2)nc2n3CCN(c3ccccc3)C2=O)cc1 yielded an RP-LC retention time of 732 s.

Compound Cc1noc(-c2cccn2Cc2c(F)cccc2Cl)n1 has an RP-LC retention time of 1130 s.

In the case of O=C(NC1CCN(Cc2ccccc2)CC1)C1CCCN(c2ncc(-c3cccc(F)c3)cn2)C1 (stereo not drawn), the RP-LC retention time is reported as 753 s.

With Cc1cccc(NC(=O)N2CCN(CC(=O)c3c(C)n(C)c4ccccc34)CC2)c1 the RP-LC retention time was 693 s.

Work on O=C(Nc1ccc(OCc2nnc(-c3ccccc3)o2)cc1)c1ccc(Cl)nc1 yielded an RP-LC retention time of 898 s.

In the case of COc1ccc(NC(=O)C2CCN(c3nnc4ccccn34)CC2)cc1Cl, the RP-LC retention time is reported as 666 s.

Compound Cc1ccc2[nH]cc(NC(=O)NCCN(C)C)c(=O)c2c1 has an RP-LC retention time of 563 s.

Compound COC(=O)c1c(N)n(-c2cccc(F)c2)c2nc3ccccc3nc12 has an RP-LC retention time of 685 s.

Cc1cc2c(cc1S(=O)(=O)N1CCCC1C(=O)Nc1cccc(C)c1C)OCC(=O)N2 (stereo not drawn) gave an RP-LC retention time of 789 s.

For O=C(C1CCCCC1)N1CCC(c2noc(CO)n2)C1 (stereo not drawn), the RP-LC retention time was 656 s.

With Cc1ccc(-c2ccc(N3CCCC(C(=O)N4CCC(C(N)=O)CC4)C3)nn2)cc1C (stereo not drawn) the RP-LC retention time was 622 s.

In the case of CCOc1ccc2ncc(C(=O)c3ccc(C)cc3)c(N3CCN(CC)CC3)c2c1, the RP-LC retention time is reported as 622 s.

Clc1ccc(-c2nc(N3CCN(C4CCCCC4)CC3)c3ccccc3n2)cc1 showed an RP-LC retention time of 562 s.

For O=C(Nc1ccc(F)c(Cl)c1)c1nc2ncccn2n1, the RP-LC retention time was 729 s.

With O=C1CCN(CC2CCCCC2)CCCC(c2nc(-c3cnccn3)no2)CCN1 (stereo not drawn) the RP-LC retention time was 619 s.

With N#Cc1ccc(C(=O)NCC(=O)N2CCCc3ccccc32)cc1 the RP-LC retention time was 773 s.

Cn1ncc2c3ccccc3n(CCCC(=O)NCCc3ccco3)c2c1=O gave an RP-LC retention time of 775 s.

Compound Cc1nc(C)c(C(=O)NCC23CCCC=C2NC(=O)CC3)s1 (stereo not drawn) has an RP-LC retention time of 633 s.

Compound C=CCn1c(=O)c2ccccc2n(Cc2nc(-c3ccc(F)c(Cl)c3)no2)c1=O has an RP-LC retention time of 1140 s.

For COc1ccc(NC(C)=O)cc1NC(=O)C1CC(=O)N(c2n[nH]c3ccccc23)C1 (stereo not drawn), the RP-LC retention time was 626 s.

Compound COCCN(Cc1ccncc1)C(=O)c1ccc2nsnc2c1 has an RP-LC retention time of 544 s.

With CC1CN(c2nc(Nc3ccc(Cl)cc3)c3cnn(C)c3n2)CC(C)O1 (stereo not drawn) the RP-LC retention time was 1040 s.

Cc1ccc(Cl)cc1NS(=O)(=O)c1c(C)sc(C)c1-c1cc(C(F)(F)F)on1 gave an RP-LC retention time of 1220 s.

Work on Cc1ccc(CNC(=O)C2CCN(S(=O)(=O)c3cc(-c4noc(C5CC5)n4)cs3)CC2)cc1 yielded an RP-LC retention time of 998 s.

CSc1cccc(NC(=O)c2nnn(-c3ccccc3)c2C)c1 gave an RP-LC retention time of 1060 s.

Work on Cc1ccc(N(C)S(=O)(=O)c2cc(-c3cc(C(F)(F)F)on3)sc2C)cc1 yielded an RP-LC retention time of 1320 s.

For CC(=O)N1N=C(c2ccccc2NS(C)(=O)=O)CC1c1ccc2ncccc2c1 (stereo not drawn), the RP-LC retention time was 599 s.

For O=C(c1ccc(Br)o1)N1CC2CN(S(=O)(=O)c3ccccc3)CC(C1)O2, the RP-LC retention time was 781 s.

With Fc1cccc(-c2nc(-c3ccc(-n4cccn4)nc3)no2)c1 the RP-LC retention time was 1220 s.

With CCc1ccc(NC(=O)CSC2=C(C#N)C3(CCCCC3)C(C#N)C(=O)N2)cc1 (stereo not drawn) the RP-LC retention time was 1030 s.

CC(C)n1ccc(-c2nnc(NC(=O)COc3ccc(Cl)cc3Cl)o2)n1 showed an RP-LC retention time of 793 s.

With Cc1ccsc1C(=O)NCCc1cn(CC(C)C)c2ncccc12 the RP-LC retention time was 844 s.

With CCn1c(SCC(=O)Nc2ccc3c(c2)OCO3)nnc1-c1cn(C)nc1-c1ccc(Cl)cc1 the RP-LC retention time was 819 s.

Work on COCCCNC(=O)C1CCCN(c2cc(=O)n(C)c(=O)n2C)C1 (stereo not drawn) yielded an RP-LC retention time of 585 s.

In the case of O=C(Nc1cnc(-c2ccccc2)nc1)C1CCCC1, the RP-LC retention time is reported as 936 s.

With Cn1c(=O)c(N2CCC(C(=O)NCc3ccco3)CC2)nc2ccccc21 the RP-LC retention time was 774 s.

Work on COc1ccc(C2CCCN2C(=O)c2c(C)noc2C)cc1 (stereo not drawn) yielded an RP-LC retention time of 746 s.

Compound O=C(CSc1nccn1Cc1ccco1)Nc1ccccc1C(F)(F)F has an RP-LC retention time of 637 s.

CCc1nc(-c2csc(S(=O)(=O)N3CCC(C(=O)NCc4ccccc4)CC3)c2)no1 showed an RP-LC retention time of 702 s.

O=C(c1ccco1)N1CCc2cc(-c3csc(C4CC4)n3)ccc21 gave an RP-LC retention time of 1070 s.

CCC(C)NC(=O)NCCC1CCN(S(=O)(=O)c2ccc(C)cc2)CC1 (stereo not drawn) showed an RP-LC retention time of 861 s.

Compound Cc1ccc(Nc2c(-c3ccccc3)nc3ccc(Br)cn23)cc1 has an RP-LC retention time of 881 s.

Compound Cc1nc(-c2noc(-c3cccnc3)n2)cn1CC(=O)NC(C)c1ccccc1 (stereo not drawn) has an RP-LC retention time of 684 s.

Compound CC1CCN(c2ncc3c(n2)CCC(C(=O)Nc2ccc(N4CCOCC4)cc2)C3)CC1 (stereo not drawn) has an RP-LC retention time of 721 s.

CCOC(=O)c1cc(C)nc2c1c(=O)n(Cc1ccc(OC)cc1)c(=O)n2C showed an RP-LC retention time of 1020 s.

In the case of O=C(Cc1ccsc1)N1CCC(Nc2ncnc3c2CCC3)CC1, the RP-LC retention time is reported as 673 s.

Cc1ccccc1CNC(=O)c1ccc2c(c1)CC(=O)N2C gave an RP-LC retention time of 714 s.

In the case of COc1ccccc1C(=O)N1CCN(C2=NS(=O)(=O)c3ccccc32)CC1, the RP-LC retention time is reported as 698 s.

For CCC(C(=O)NCCN1CCCC1)n1c2ccccc2c2cnn(C)c(=O)c21 (stereo not drawn), the RP-LC retention time was 632 s.

With O=C(c1ccccc1Br)N1CCc2nc(-c3ccc(Cl)cc3)ncc2C1 the RP-LC retention time was 1110 s.

COc1cccc(CNC(=O)C2(C)CCCN(C(=O)Nc3cccc(C)c3C)C2)c1 (stereo not drawn) gave an RP-LC retention time of 855 s.

In the case of COc1ccc(S(=O)(=O)N2CCCC(C(=O)NCc3ccccn3)C2)cc1Cl (stereo not drawn), the RP-LC retention time is reported as 838 s.

CCc1noc(NC(C)=O)c1-c1ccc(C)c(S(=O)(=O)N2CCC(C)CC2)c1 gave an RP-LC retention time of 929 s.

In the case of Cc1sc(-c2noc(C(C)C)n2)cc1S(=O)(=O)N1CCC(C(=O)NCc2cccs2)CC1, the RP-LC retention time is reported as 1030 s.

For O=C(NC1CCCC1)c1cccnc1N1CCCCC1, the RP-LC retention time was 684 s.

CNC(=O)c1cc(-c2ccc(F)cc2)n[nH]1 showed an RP-LC retention time of 659 s.

Compound O=C(Nc1ccc2c(c1)CN(C(=O)C1COc3ccccc3O1)CCO2)C1CC1 (stereo not drawn) has an RP-LC retention time of 823 s.

Compound Cc1cccc(C)c1NC(=O)Cn1nc(N2CCSCC2)c2ccccc2c1=O has an RP-LC retention time of 892 s.

In the case of CC(C)CCNC(=O)C1(C)CN(S(=O)(=O)c2ccccc2)CC(=O)N1Cc1ccc(F)cc1 (stereo not drawn), the RP-LC retention time is reported as 978 s.

With CC(C)(O)CC[C@@H](O)[C@@](C)(O)[C@H]1CC[C@@]2(O)C3=CC(=O)[C@@H]4C[C@@H](O)[C@@H](O)C[C@]4(C)[C@H]3CC[C@]12C the RP-LC retention time was 607 s.

CCN(CC)c1ncnc2c1cnn2CC(=O)N1CCN(c2ccccn2)CC1 showed an RP-LC retention time of 549 s.

Cc1ccc(-c2nc3ccc(Cl)cn3c2Nc2ccc3c(c2)OCCO3)cc1 showed an RP-LC retention time of 779 s.

Work on Cc1ccc(S(=O)(=O)NCCC(=O)N2CCCC2c2nc(-c3ccc(Cl)cc3)no2)cc1 (stereo not drawn) yielded an RP-LC retention time of 1040 s.

COc1ccc(Cl)cc1NC(=O)c1csc(-c2cn(C)c3ncccc23)n1 gave an RP-LC retention time of 1230 s.

With CC(=O)c1ccc(NC(=O)Cn2ccc3ccc(-c4nnc(C)o4)cc32)cc1 the RP-LC retention time was 743 s.

O=C(Cc1cccs1)N1CCC(c2nc(-c3ccccc3)no2)C1 (stereo not drawn) gave an RP-LC retention time of 883 s.

CC(=O)c1cccc(NC(=O)Nc2cccc(-c3ccc(N4CCCC4)nn3)c2)c1 gave an RP-LC retention time of 654 s.

Work on CCc1nc2cc(-c3noc(CCc4ccccc4OC)n3)ccc2o1 yielded an RP-LC retention time of 1190 s.

Work on CC(C)N1CCC(c2nnc3n2CCN(S(=O)(=O)c2ccccc2Cl)C3)C1 (stereo not drawn) yielded an RP-LC retention time of 599 s.

Cc1ccc(-c2csc(NC(=O)COc3ccc(Cl)cc3Cl)n2)cc1 gave an RP-LC retention time of 1180 s.

Compound COc1cccc(-c2[nH]ncc2CNS(=O)(=O)c2cc(OC)ccc2OC)c1 has an RP-LC retention time of 756 s.

Compound O=C(c1cc(Cc2n[nH]c(=O)c3ccccc23)ccc1F)N1CCN(C(=O)C2CC2)CC1 has an RP-LC retention time of 717 s.

For Cc1c(Cl)cccc1Nc1c(-c2ccc(C(=O)O)cc2)nc2cnccn12, the RP-LC retention time was 796 s.

For CN1C(=O)C2(CCN(C(=O)c3ccccc3Cl)C2)c2ccccc21 (stereo not drawn), the RP-LC retention time was 787 s.

With CCCNC(=O)C1CCN(c2ccc(SCC(=O)Nc3cc(F)ccc3Cl)nn2)CC1 the RP-LC retention time was 724 s.

Compound COCCn1c(CCCC(=O)N2CCN(c3ccccn3)CC2)nc2cccnc21 has an RP-LC retention time of 562 s.

For CN1C(=O)c2cc(S(=O)(=O)Nc3ccc(F)c(Cl)c3)ccc2Oc2cccnc21, the RP-LC retention time was 962 s.

Compound CCOC(=O)c1c(S(=O)(=O)N2CCC(C(=O)Nc3cc(C)ccn3)CC2)c(C)n(C)c1C has an RP-LC retention time of 644 s.

Work on O=C(NC1CCCCC1)c1ccc(CN2C(=O)C3CCCN3C(=O)c3ccccc32)cc1 (stereo not drawn) yielded an RP-LC retention time of 770 s.
